# Test results reported in patent US20240123079A1 (Seagen Inc., priority 2021, published 2024).
# Tested on: THP1-Dual™ reporter cells
# Experiment: THP1-Dual cell reporter assay (IRF-Lucia luciferase reporter)
# Format: cell-based, human
# Settings: ADCs: drug linker conjugated to a targeted mAb, 48 h
# Method: THP1-Dual™ Cell Reporter Assay
# Potency of compounds and ADCs was evaluated using the THP1-Dual™ cells (InvivoGen PN: thpd-nfis [also referred to as THP1 dual reporter cells]), which contain an IRF-Lucia luciferase reporter. Cells were cultured in RPMI-1640 (Gibco) with 10% heat-inactivated fetal bovine serum, Pen-Strep (100 U/mL-100 μg/mL, Gibco), HEPES (10 mM, Gibco)), sodium pyruvate (1 mM, Gibco), MEM non-essential amino acids (1×, Gibco), GlutaMAX (1×, Gibco), and beta-mercaptoethanol (55 μM, Gibco). Cells were plated in a 96-well flat bottom tissue culture-treated clear polystyrene plate (Corning Costar #3596) at ˜100,000 cells per well in 200 μL with the indicated concentration of the compound or ADC. The supernatant was harvested at 24 hours (compounds) or 48 hours (ADC) post plating for the reporter assay, or as indicated. To measure Lucia reporter signal, 10 μL of the supernatant was combined with 40 μL of QUANTI-Luc™ Luminescence assay reagent (Invivogen PN: rep-qlc1) in a 96-well clear flat bottom tissue culture-treated black polystyrene plate (Corning Costar #3603) and read on a Perkin Elmer Envision plate reader.
# STING agonist compounds were assessed for their ability to activate THP1-Dual™ reporter cells, a human monocytic cell line in which type I interferon (IRF) signaling can be monitored via a secreted luciferase reporter protein (Lucia). THP1-Dual™ cells were treated with increasing concentrations of the agonists for 24h, then supernatants were harvested and the Lucia reporter signal was quantified using QUANTI-Luc™ Luminescence assay reagent.
Compound,EC50 (ng/mL),EC50 [ng/mL]
CCn1nc(C)cc1C(=O)Nc1nc2cc(C(N)=O)cc(OC)c2n1C/C=C/Cn1c(NC(=O)c2cc(C(F)(F)F)nn2CC)nc2cc(C(N)=O)cc(OCCCN(C)C(=O)CCN3C(=O)C=CC3=O)c21 [Compound 109],">10,000 ng/mL",–
CCn1nc(C)cc1C(=O)Nc1nc2cc(C(N)=O)cc(OC)c2n1C/C=C/Cn1c(NC(=O)c2cccnn2)nc2cc(C(N)=O)cc(OCCCN(C)C(=O)CCN3C(=O)C=CC3=O)c21 [Compound 96],">10,000 ng/mL",–
CCn1nc(C)cc1C(=O)Nc1nc2cc(C(N)=O)cc(OC)c2n1C/C=C/Cn1c(NC(=O)c2cc(C)nn2CC)nc2cc(C(N)=O)cc(OCCC[N+](C)(C)Cc3ccc(O[C@@H]4O[C@H](C(=O)O)[C@@H](O)[C@H](O)[C@H]4O)cc3NC(=O)CCNC(=O)CCN3C(=O)C=CC3=O)c21.O=C([O-])C(F)(F)F [Compound 134],–,10.3
CCn1nc(C)cc1C(=O)Nc1nc2cc(C(N)=O)cc(OC)c2n1C/C=C/Cn1c(NC(=O)c2cc(C)nn2CC)nc2cc(C(N)=O)cc(OCCCN(C)C(=O)[C@H](CC(C)C)NC(=O)CCN3C(=O)C=CC3=O)c21 [Compound 121],–,3.0
CCn1nc(C)cc1C(=O)Nc1nc2cc(C(N)=O)cc(OC)c2n1C/C=C/Cn1c(NC(=O)c2ncccn2)nc2cc(C(N)=O)cc(OCCCN(C)C(=O)CCN3C(=O)C=CC3=O)c21 [Compound 101],">10,000 ng/mL",–
CCn1nc(C)cc1C(=O)Nc1nc2cc(C(N)=O)cc(OC)c2n1C/C=C/Cn1c(NC(=O)c2cc(C)nn2CC)nc2cc(C(N)=O)cc(OCCCN(C)C(=O)[C@H](CCC(=O)OC)NC(=O)CCN3C(=O)C=CC3=O)c21 [Compound 123],–,1.6
CCn1nc(C)cc1C(=O)Nc1nc2cc(C(=O)O)cc(OC)c2n1C/C=C/Cn1c(NC(=O)c2cc(C)nn2CC)nc2cc(C(=O)O)cc(OCCCN(C)C(=O)OCc3ccc(O[C@@H]4O[C@H](C(=O)O)[C@@H](O)[C@H](O)[C@H]4O)cc3NC(=O)CCNC(=O)CCN3C(=O)C=CC3=O)c21 [Compound 69],">10,000 ng/mL",–
CCc1nc(C)oc1C(=O)Nc1nc2cc(C(N)=O)cc(OCCCN(C)C(=O)CCN3C(=O)C=CC3=O)c2n1C/C=C/Cn1c(NC(=O)c2cc(C)nn2CC)nc2cc(C(N)=O)cc(OC)c21 [Compound 112],–,2
"CCn1nc(C)cc1C(=O)Nc1nc2cc(S(=O)(=O)NC)ccc2n1C/C=C/Cn1c(NC(=O)c2cc(C)nn2CC)nc2cc(C(N)=O)cc(OCCCN(C)C(=O)CCN3C(=O)C=CC3=O)c21 [Compound 128, (E)-7-(3-(3-(2,5-dioxo-2,5-dihydro-1H-pyrrol-1-yl)-N-methylpropanamido)propoxy)-2-(1-ethyl-3-methyl-1H-pyrazole-5-carboxamido)-1-(4-(2-(1-ethyl-3-methyl-1H-pyrazole-5-carboxamido)-5-(N-methylsulfamoyl)-1H-benzo[d]imidazol-1-yl)but-2-en-1-yl)-1H-benzo[d]imidazole-5-carboxamide]",">10,000 ng/mL",–
"CCn1nc(C)cc1C(=O)Nc1nc2cc(C(N)=O)cc(OC)c2n1C/C=C/Cn1c(NC(=O)c2cc(C)nn2CC)nc2cc(C(N)=O)cc(OCCC3CN(C(=O)CCN4C(=O)C=CC4=O)C3)c21 [Compound 26, (E)-1-(4-(5-carbamoyl-2-(1-ethyl-3-methyl-1H-pyrazole-5-carboxamido)-7-methoxy-1H-benzo[d]imidazol-1-yl)but-2-en-1-yl)-7-(2-(1-(3-(2,5-dioxo-2,5-dihydro-1H-pyrrol-1-yl)propanoyl)azetidin-3-yl)ethoxy)-2-(1-ethyl-3-methyl-1H-pyrazole-5-carboxamido)-1H-benzo[d]imidazole-5-carboxamide]",–,14.4
CCn1cc(C(=O)Nc2nc3cc(C(N)=O)cc(OCCCN(C)C(=O)CCN4C(=O)C=CC4=O)c3n2C/C=C/Cn2c(NC(=O)c3cc(C)nn3CC)nc3cc(C(N)=O)cc(OC)c32)c(C)n1 [Compound 102],">10,000 ng/mL",–

# Same assay, conditions: Homo sapiens, THP1-Dual; free compounds, 24 h, Lucia reporter signal; read-out: EC50
row,Compound,EC50 [nM]
1,COc1cc(C(N)=O)cc2nc(NC(=O)c3cc(C)on3)n(C/C=C/Cn3c(NC(=O)c4cc(C)on4)nc4cc(C(N)=O)cc(O)c43)c12 [Compound 39],> 10000
2,CCn1nc(C)cc1C(=O)Nc1nc2cc(C(N)=O)cc(OC)c2n1C/C=C/Cn1c(NC(=O)c2cc(C)nn2CC)nc2cc(C(N)=O)cc(OCCCN(C)C(=O)[C@@H](N)Cc3ccccc3)c21 [Compound 116],11.6
3,COc1cc(C(N)=O)cc2nc(NC(=O)c3ccncn3)n(C/C=C/Cn3c(NC(=O)c4ccncn4)nc4cc(C(N)=O)cc(O)c43)c12 [Compound 45],> 10000
4,COc1cc(C(N)=O)cc2nc(NC(=O)C3CCCC3)n(C/C=C/Cn3c(NC(=O)C4CCCC4)nc4cc(C(N)=O)cc(O)c43)c12 [Compound 56],> 10000
5,"CCn1nc(C)cc1C(=O)Nc1nc2cc(C(N)=O)cc(OC)c2n1C/C=C/Cn1c(NC(=O)c2cc(C)nn2C)nc2cc(C(N)=O)cc(OCCC3CNC3)c21 [Compound 140, (E)-7-(2-(azetidin-3-yl)ethoxy)-1-(4-(5-carbamoyl-2-(1-ethyl-3-methyl-1H-pyrazole-5-carboxamido)-7-methoxy-1H-benzo[d]imidazol-1-yl)but-2-en-1-yl)-2-(1,3-dimethyl-1H-pyrazole-5-carboxamido)-1H-benzo[d]imidazole-5-carboxamide]",1790
6,COc1cc(C(N)=O)cc2nc(NC(=O)c3cc(C)sn3)n(C/C=C/Cn3c(NC(=O)c4cc(C)sn4)nc4cc(C(N)=O)cc(O)c43)c12 [Compound 40],> 10000
7,"CCc1nc(C)oc1C(=O)Nc1nc2cc(C(N)=O)cc(OCCC3CNC3)c2n1C/C=C/Cn1c(NC(=O)c2cc(C)nn2CC)nc2cc(C(N)=O)cc(OC)c21 [Compound 141, (E)-N-(7-(2-(azetidin-3-yl)ethoxy)-5-carbamoyl-1-(4-(5-carbamoyl-2-(1-ethyl-3-methyl-1H-pyrazole-5-carboxamido)-7-methoxy-1H-benzo[d]imidazol-1-yl)but-2-en-1-yl)-1H-benzo[d]imidazol-2-yl)-4-ethyl-2-methyloxazole-5-carboxamide]",159
8,"CCn1nc(C)cc1C(=O)Nc1nc2cc(C(=O)O)cc(O)c2n1C/C=C/Cn1c(NC(=O)c2cc(C)nn2CC)nc2cc(C(=O)O)cc(OC)c21 [Compound 63, (E)-1-(4-(5-carboxy-2-(1-ethyl-3-methyl-1H-pyrazole-5-carboxamido)-7-hydroxy-1H-benzo[d]imidazol-1-yl)but-2-en-1-yl)-2-(1-ethyl-3-methyl-1H-pyrazole-5-carboxamido)-7-methoxy-1H-benzo[d]imidazole-5-carboxylic acid]",2510
9,CCn1nc(C)cc1C(=O)Nc1nc2cc(C(N)=O)cc(O)c2n1C/C=C/Cn1c(NC(=O)c2cc(C)nn2CC)nc2cc(C(N)=O)cc(OCCCN3CCOCC3)c21 [Compound 70],1.6
10,COc1cc(C(N)=O)cc2nc(NC(=O)C3CCC3)n(C/C=C/Cn3c(NC(=O)C4CCC4)nc4cc(C(N)=O)cc(O)c43)c12 [Compound 57],> 10000
11,COc1cc(C(N)=O)cc2nc(NC(=O)c3cc(C)no3)n(C/C=C/Cn3c(NC(=O)c4cc(C)no4)nc4cc(C(N)=O)cc(O)c43)c12 [Compound 58],> 10000
12,CCn1nc(C)cc1C(=O)Nc1nc2cc(C(N)=O)cc(OC)c2n1C/C=C/Cn1c(NC(=O)c2cc(C)nn2CC)nc2cc(C(N)=O)cc(OCCCN(C)C(=O)[C@@H](N)Cc3ccc(OC)cc3)c21 [Compound 118],23.6
13,"CCn1nc(C)cc1C(=O)Nc1nc2cc(C(N)=O)cc(OC)c2n1C/C=C/Cn1c(NC(=O)c2cc(C)nn2CC)nc2cc(C(N)=O)cc(OCCCOC3CN(C(=O)CCN4C(=O)CC(SC[C@H](N)C(=O)O)C4=O)C3)c21 (stereo partly drawn) [Compound 30, S-(1-(3-(3-(3-((5-carbamoyl-1-((E)-4-(s-carbamoyl-2-(1-ethyl-3-methyl-1H-pyrazole-5-carboxamido)-7-methoxy-1H-benzo[d]imidazol-1-yl)but-2-en-1-yl)-2-(1-ethyl-3-methyl-1H-pyrazole-5-carboxamido)-1H-benzo[d]imidazol-7-yl)oxy)propoxy)azetidin-1-yl)-3-oxopropyl)-2,5-dioxopyrrolidin-3-yl)-L-cysteine]",87
14,CCc1nc(C)sc1C(=O)Nc1nc2cc(C(N)=O)cc(OCCCNC)c2n1C/C=C/Cn1c(NC(=O)c2cc(C)nn2CC)nc2cc(C(N)=O)cc(OC)c21 [Compound 94],133
15,CCn1nc(C)cc1C(=O)Nc1nc2cc(C(N)=O)cc(OC)c2n1C/C=C/Cn1c(NC(=O)c2ncccn2)nc2cc(C(N)=O)cc(OCCCNC)c21 [Compound 84],> 10000

# Same assay, conditions: free compounds, 24 h, Lucia reporter signal; read-out: EC50
row,Compound,EC50 [nM]
1,CCn1nc(C)cc1C(=O)Nc1nc2cc(C(N)=O)cc(OC)c2n1C/C=C/Cn1c(NC(=O)c2cc(C)nn2CC)nc2cc(C(N)=O)cc(OCCC3CN(C(=O)OC(C)(C)C)C3)c21 [Compound 26e],5
